The values below come from patent US6380387B1, “4-Pyrimidinyl-n-acyl-l phenylalanines” (Hoffmann-La Roche Inc., priority 1999, dated 2002).

Structures are written as SMILES. pIC50: −log10 of the molar value.

One series concerns the target T1, alpha4-beta7 (Homo sapiens, UniProt P13612+P26010).
T1 construct: Sufficient RPMI 8866 cells were removed from stock for assay; endogenous in cells; host or cells: RPMI 8866 cells
T1 sequence (P13612 34-1032): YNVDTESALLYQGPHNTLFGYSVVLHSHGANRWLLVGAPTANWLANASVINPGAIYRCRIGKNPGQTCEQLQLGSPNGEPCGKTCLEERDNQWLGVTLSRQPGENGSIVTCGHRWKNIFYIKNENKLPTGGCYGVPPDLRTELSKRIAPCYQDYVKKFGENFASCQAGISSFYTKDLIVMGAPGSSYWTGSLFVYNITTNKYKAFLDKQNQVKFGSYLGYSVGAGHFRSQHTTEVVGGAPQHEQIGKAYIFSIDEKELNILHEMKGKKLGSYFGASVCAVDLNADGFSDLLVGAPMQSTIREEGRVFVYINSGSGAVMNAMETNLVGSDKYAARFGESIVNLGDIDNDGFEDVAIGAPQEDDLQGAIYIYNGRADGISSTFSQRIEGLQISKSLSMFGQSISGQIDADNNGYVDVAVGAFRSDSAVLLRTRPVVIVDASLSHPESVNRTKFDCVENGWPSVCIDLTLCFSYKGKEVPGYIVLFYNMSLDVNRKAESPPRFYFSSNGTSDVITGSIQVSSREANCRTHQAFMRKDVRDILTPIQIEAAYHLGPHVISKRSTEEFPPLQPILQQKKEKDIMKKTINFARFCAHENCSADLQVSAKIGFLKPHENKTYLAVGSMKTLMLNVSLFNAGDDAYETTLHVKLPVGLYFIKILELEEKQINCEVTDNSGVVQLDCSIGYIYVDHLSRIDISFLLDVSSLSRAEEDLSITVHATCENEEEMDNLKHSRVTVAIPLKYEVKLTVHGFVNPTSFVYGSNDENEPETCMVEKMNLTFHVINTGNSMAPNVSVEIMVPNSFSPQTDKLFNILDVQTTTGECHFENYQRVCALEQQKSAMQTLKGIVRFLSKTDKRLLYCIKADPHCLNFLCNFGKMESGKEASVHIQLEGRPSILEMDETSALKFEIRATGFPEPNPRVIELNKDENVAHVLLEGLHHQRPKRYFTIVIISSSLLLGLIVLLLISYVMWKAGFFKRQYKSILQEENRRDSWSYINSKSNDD
T1 sequence (P26010 20-798): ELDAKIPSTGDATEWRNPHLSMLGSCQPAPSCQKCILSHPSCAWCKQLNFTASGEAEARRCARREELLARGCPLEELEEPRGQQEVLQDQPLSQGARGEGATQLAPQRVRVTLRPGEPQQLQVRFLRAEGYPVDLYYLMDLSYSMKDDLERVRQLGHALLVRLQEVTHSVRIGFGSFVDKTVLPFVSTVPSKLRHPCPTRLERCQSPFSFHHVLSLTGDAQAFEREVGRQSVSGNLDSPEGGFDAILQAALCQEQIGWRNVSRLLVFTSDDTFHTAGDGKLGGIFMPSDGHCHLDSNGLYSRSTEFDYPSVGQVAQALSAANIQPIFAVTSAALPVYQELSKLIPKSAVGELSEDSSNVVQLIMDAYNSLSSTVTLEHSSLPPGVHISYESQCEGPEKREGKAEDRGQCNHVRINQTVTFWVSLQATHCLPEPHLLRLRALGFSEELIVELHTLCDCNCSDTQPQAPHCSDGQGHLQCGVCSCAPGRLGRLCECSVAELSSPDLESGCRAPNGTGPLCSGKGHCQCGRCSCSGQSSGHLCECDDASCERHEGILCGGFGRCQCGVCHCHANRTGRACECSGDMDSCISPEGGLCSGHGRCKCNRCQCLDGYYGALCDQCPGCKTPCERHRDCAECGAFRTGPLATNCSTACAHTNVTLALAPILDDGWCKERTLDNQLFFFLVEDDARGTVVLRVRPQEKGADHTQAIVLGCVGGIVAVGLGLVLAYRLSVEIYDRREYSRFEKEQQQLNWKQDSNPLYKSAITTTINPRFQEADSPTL
The series can be described thus: Alpha4-Beta7 Assay (MadCAM/RPMI 8866 cell adhesion). The format is cell-based. The following applies: calcein labeled RPMI 8866 cells adhering to immobilized MadCAM. As to the method: Alpha4-Beta7 Assay Protocol
Two weeks to one day prior to the assay, Nunc high-binding F96 Maxisorp immuno plates, #442404 or #439454, were coated with 25 ng/well (0.25 μg/ml) MadCAM in a volume of 100 μl/well. The plates were covered with sealer and wrapped in saran wrap followed by incubation in the refrigerator for at least 24 hours. The coating buffer employed was: 10 mM carbonate/bicarbonate buffer made up from: 0.8 g/L sodium carbonate and 1.55 g/L sodium bicarbonate adjusted to pH 9.6 with 1 N HCl. Assay buffers consisted of the following:
Plates were washed 2× with wash buffer and then blocked at room temperature for at least 1 hour with Blocking Buffer. Sealed plates were sometimes blocked overnight in the refrigerator. Plates were then washed with PBS and hand blotted dry. Remaining liquid was aspirated from the wells.
Sufficient RPMI 8866 cells were removed from stock for assay (2×10^6 cells/ml×10 ml/plate×number of plates) and placed in a centrifuge tube. The tubes were filled to volume with PBS and were spun at 200×G for 8 minutes. The buffer was poured off and the cells were resuspended to 10×10^6/ml in PBS and a stock solution of calcein in DMSO (5mg/mL) was added at 51 μl/ml of cell suspension. The suspension was incubated for 30 minutes at 37° C. in dark. The cells were then washed with PBS. The PBS was poured off and the cells resuspended in cell buffer at a concentration of 2×10^6 cells/mL for plating in the assay.
Stock solution of test compounds at 25× first dilution desired in 100% DMSO were prepared. First dilutions for the standard, as well as test compounds, were 1:25 into straight Binding Buffer, while the remaining serial dilutions were into Dilution Buffer (Binding Buffer/4% DMSO). Stock concentrations and dilutions of compounds for screening were determined by anticipated activity.
For the assay, 129 μl Binding Buffer was plated into first row of wells and 100 μl Dilution Buffer was plated into remaining wells. A 5.44 μl aliquot of each compound was pipetted into appropriate, labeled wells, in triplicate. The compounds were next diluted down the plate (34 μl+100 μl=>4-fold dilution). For controls, 100 μl of Dilution Buffer 100 μl Cell Buffer were plated into the nonspecific background wells (no cells, no compound) and 100 μl Dilution Buffer+100 μl cells were plated into the total binding wells (no compound=100% binding). Labeled cells at 2×10^6 cells/ml, 100 μl/well (=2×10^5 cells/well) were added to each well containing compound. The plates were sealed and incubated in the dark for 45 minutes at room temperature. Following incubation, unbound cells were removed by adding 150 μl PBS/well. The plates were inverted, blotted onto paper towels and washed by gently adding 200 μl PBS to wells and blotting again. Remaining buffer was carefully aspirated from the wells. A final 100 μl PBS was added to each well.
The plates were then read for fluorescence intensity on a Cytofluor 2300 (Millipore) fluorecence measurement system (excitation=485 nm, emission=530 nm). IC50s of each compound were determined by linear regression analysis.

With `Cc1c(-c2ccc(C[C@H](NC(=O)c3c(Cl)cccc3Cl)C(=O)O)cc2)c(=O)n(C)c(=O)n1C` [Example 6, N-[(2,6-dichlorophenyl)carbonyl]-4-(1,3,6-trimethyl-2,4-dioxo-5-pyrimidinyl)-L-phenylalanine], at alpha4-beta7, the negative-log IC50 (pIC50) is more than 7.00.
Same read-out and setting: for `COCCC1(C(=O)N[C@@H](Cc2ccc(-c3c(C)n(C)c(=O)n(C)c3=O)cc2)C(=O)O)CCCC1` [Example 7, N-[[1-(2-methoxyethyl)cyclopentyl]carbonyl]-4-(1,3,6-trimethyl-2,4-dioxo-5-pyrimidinyl)-L-phenylalanine] the value was more than 7.00.
Compound `Cc1cccc(Br)c1C(=O)N[C@@H](Cc1ccc(-c2c(C)n(C)c(=O)n(C)c2=O)cc1)C(=O)O` [Example 8, N-[(2-bromo-6-methylphenyl)carbonyl]-4-(1,3,6-trimethyl-2,4-dioxo-5-pyrimidinyl)-L-phenylalanine] registered a melting point of 240 to 242 °C. Further, the negative-log IC50 (pIC50) at alpha4-beta7 was more than 7.00.
Regarding `Cc1cccc(Cl)c1C(=O)N[C@@H](Cc1ccc(-c2c(C)n(C)c(=O)n(C)c2=O)cc1)C(=O)O` [Example 9, N-[(2-chloro-6-methylphenyl)carbonyl]-4-(1,3,6-trimethyl-2,4-dioxo-5-pyrimidinyl)-L-phenylalanine], on alpha4-beta7, the negative-log IC50 (pIC50) is more than 7.00.
`CCc1cccc(C)c1C(=O)N[C@@H](Cc1ccc(-c2c(C)n(C)c(=O)n(C)c2=O)cc1)C(=O)O` [Example 10, N-[(2-ethyl-6-methylphenyl)carbonyl]-4-(1,3,6-trimethyl-2,4-dioxo-5-pyrimidinyl)-L-phenylalanine] registered a melting point of 127 to 133 °C. Besides, the pIC50 at alpha4-beta7 is more than 5.00.
Consider `Cc1cccc(C(C)C)c1C(=O)N[C@@H](Cc1ccc(-c2c(C)n(C)c(=O)n(C)c2=O)cc1)C(=O)O` [Example 11, N-[[2-(2-methylethyl)-6-methylphenyl]carbonyl]-4-(1,3,6-trimethyl-2,4-dioxo-5-pyrimidinyl)-L-phenylalanine], for which, on alpha4-beta7, the pIC50 is more than 5.30.
Turning to `Cc1c(-c2ccc(C[C@H](NC(=O)c3c(F)cccc3F)C(=O)O)cc2)c(=O)n(C)c(=O)n1C` [Example 12, N-[(2,6-difluorophenyl)carbonyl]-4-(1,3,6-trimethyl-2,4-dioxo-5-pyrimidinyl)-L-phenylalanine], at alpha4-beta7, the pIC50 is more than 7.00.
With `Cc1c(-c2ccc(C[C@H](NC(=O)c3c(F)cccc3C(F)(F)F)C(=O)O)cc2)c(=O)n(C)c(=O)n1C` [Example 13, N-[(2-fluoro-6-(trifluoromethyl)phenyl)carbonyl]-4-(1,3,6-trimethyl-2,4-dioxo-5-pyrimidinyl)-L-phenylalanine], the melting point fell in the range of 218 to 220 °C. The negative logarithm of the IC50 (pIC50) on alpha4-beta7 is more than 5.00.
As for `Cc1c(-c2ccc(C[C@H](NC(=O)c3c(C(C)C)cccc3C(C)C)C(=O)O)cc2)c(=O)n(C)c(=O)n1C` [Example 14, N-[[2,6-di-(2-methylethyl)phenyl]carbonyl]-4-(1,3,6-trimethyl-2,4-dioxo-5-pyrimidinyl)-L-phenylalanine], the negative-log IC50 (pIC50) at alpha4-beta7 is more than 5.30.
With `CCc1cccc(Cl)c1C(=O)N[C@@H](Cc1ccc(-c2c(C)n(C)c(=O)n(C)c2=O)cc1)C(=O)O` [Example 15, N-[(2-chloro-6-ethylphenyl)carbonyl]-4-(1,3,6-trimethyl-2,4-dioxo-5-pyrimidinyl)-L-phenylalanine], the melting point lay within 187 to 190 °C. On alpha4-beta7, the negative-log IC50 (pIC50) was more than 5.00.
For the compound `CCn1c(C)c(-c2ccc(C[C@H](NC(=O)c3c(Cl)cccc3Cl)C(=O)O)cc2)c(=O)n(CC)c1=O` [Example 18, N-[(2,6-dichlorophenyl)carbonyl]-4-(1,3-diethyl-6-methyl-2,4-dioxo-5-pyrimidinyl)-L-phenylalanine], the pIC50 on alpha4-beta7 was more than 7.00.
Consider `CCn1c(C)c(-c2ccc(C[C@H](NC(=O)c3c(C)cccc3Cl)C(=O)O)cc2)c(=O)n(CC)c1=O` [Example 19, N-[(2-chloro-6-methylphenyl)carbonyl]-4-(1,3-diethyl-6-methyl-2,4-dioxo-5-pyrimidinyl)-L-phenylalanine], for which the pIC50 on alpha4-beta7 is more than 5.00.
As to `CCn1c(C)c(-c2ccc(C[C@H](NC(=O)C3(CCOC)CCCC3)C(=O)O)cc2)c(=O)n(CC)c1=O` [Example 20, 4-(1,3-diethyl-6-methyl-2,4-dioxo-5-pyrimidinyl)-N-[[1-(2-methoxyethyl)cyclopentyl]carbonyl]-L-phenylalanine], the pIC50 at alpha4-beta7 is more than 5.00.
`Cc1cc(C[C@H](NC(=O)c2c(Cl)cccc2Cl)C(=O)O)ccc1-c1cn(C)c(=O)n(C)c1=O` [Example 25, N-[(2,6-dichlorophenyl)carbonyl]-4-(1,3-dimethyl-2,4-dioxo-5-pyrimidinyl)-3-methyl-L-phenylalanine]: the pIC50 at alpha4-beta7 is more than 5.00.
As to `Cc1cc(C[C@H](NC(=O)c2c(Cl)cccc2Cl)C(=O)O)ccc1-c1c(C)n(C)c(=O)n(C)c1=O` [Example 26, N-[(2,6-dichlorophenyl)carbonyl]-4-(1,3,6-trimethyl-2,4-dioxo-5-pyrimidinyl)-3-methyl-L-phenylalanine], the negative logarithm of the IC50 (pIC50) at alpha4-beta7 is more than 5.00.
For the compound `CCOC(=O)[C@H](Cc1ccc(-c2c(C)n(C)c(=O)n(C)c2=O)cc1)NC(=O)c1c(Cl)cccc1Cl` [Example 27, N-[(2,6-dichlorophenyl)carbonyl]-4-(1,3,6-trimethyl-2,4-dioxo-5-pyrimidinyl)-L-phenylalanine ethyl ester], the pIC50 at alpha4-beta7 was more than 5.00.
